Measured values from patent publication US7879862B2, “Pyrazolo[1,5-alpha]pyrimidinyl derivatives useful as corticotropin-releasing factor (CRF) receptor antagonists” (SmithKline Beecham (Cork) Limited, priority 2004, dated 2011).
Where two headings read alike, the source gives them in different places.

Target: T1, human CRF receptors (Homo sapiens, UniProt P34998)
T1 construct: expressed in transfected cells
T1 sequence (P34998 24-415): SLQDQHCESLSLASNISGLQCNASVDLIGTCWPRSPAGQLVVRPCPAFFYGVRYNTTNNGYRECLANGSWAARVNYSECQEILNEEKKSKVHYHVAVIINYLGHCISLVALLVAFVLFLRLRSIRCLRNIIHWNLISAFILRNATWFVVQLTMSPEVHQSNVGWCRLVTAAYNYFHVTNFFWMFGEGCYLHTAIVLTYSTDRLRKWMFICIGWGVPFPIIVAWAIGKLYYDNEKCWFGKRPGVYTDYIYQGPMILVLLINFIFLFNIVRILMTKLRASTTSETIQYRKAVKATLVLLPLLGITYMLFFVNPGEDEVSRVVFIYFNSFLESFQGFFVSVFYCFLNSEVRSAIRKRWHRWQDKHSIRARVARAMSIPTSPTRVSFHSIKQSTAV
Experiment: CRF receptor binding activity (radioligand displacement, Example 25)
From the text: The effectiveness of a compound as a CRF receptor antagonist may be determined by various assay methods. […] CRF receptor affinity may be determined by binding studies that measure the ability of a compound to inhibit the binding of a radiolabeled CRF (e.g., [^125I]tyrosine-CFR) to its receptor (e.g., receptors prepared from rat cerebral cortex membranes). The radioligand binding assay described by DeSouza et al. (supra, 1987) provides an assay for determining a compound's affinity for the CRF receptor.
[formula] where L=radioligand and KD=affinity of radioligand for receptor (Cheng and Prusoff, Biochem. Pharmacol. 22:3099, 1973).
By utilizing radiolabeled CRF ligands, the assay may be used to evaluate the binding activity of the compounds of the present invention with any CRF receptor subtype.
Briefly, the binding assay involves the displacement of a radiolabeled CRF ligand from the CRF receptor. More specifically, the binding assay is performed in 96-well assay plates using 1-10 μg cell membranes from cells stably transfected with human CRF receptors. […] The mixture is incubated for 2 hours at 22° C. followed by separation of the bound and free radioligand by rapid filtration over glass fiber filters. Following three washes, the filters are dried and radioactivity (Auger electrons from ^125I) is counted using a scintillation counter. All radioligand binding data may be analyzed using the non-linear least-squares curve-fitting programs Prism (GraphPad Software Inc) or XLfit (ID Business Solutions Ltd).

[1] = displacement of [125I] tyrosine-sauvagine from membranes of cells stably transfected with human CRF receptors, less than 0.10 μM (i.e., 100 nM), read-out: Ki (CRF receptor binding affinity)

Structure (SMILES)	Ki [1] [nM]	Ki [nM]
CCC(Cc1nc(C)no1)Nc1cc(C)nc2c(-c3ccc(OC)cc3OC)c(C)nn12 (stereo not shown) [Example 12-11, [3-(2,4-Dimethoxy-phenyl)-2,5-dimethyl-pyrazolo[1,5-a]pyrimidin-7-yl]-[1-(3-methyl-[1,2,4]oxadiazol-5-ylmethyl)-propyl]-amine]	< 100	–
CCC(Nc1cc(C)nc2c(-c3ccc(OC)cc3OC)c(C)nn12)c1nc(C)no1 (stereo not shown) [Example 11-20, [3-(2,4-Dimethoxy-phenyl)-2,5-dimethyl-pyrazolo[1,5-a]pyrimidin-7-yl]-[1-(3-methyl-[1,2,4]oxadiazol-5-yl)-propyl]-amine]	–	< 100
COc1ccc(-c2c(C)nn3c(NCc4nc(C)no4)cc(C)nc23)c(C)c1 [Example 11-6, [3-(4-Methoxy-2-methyl-phenyl)-2,5-dimethyl-pyrazolo[1,5-a]pyrimidin-7-yl]-(3-methyl-[1,2,4]oxadiazol-5-ylmethyl)-amine]	–	< 100
COc1ccc(-c2c(C)nn3c(N[C@H](C)Cc4nc(C5CC5)no4)cc(C)nc23)c(C)c1 [Example 11-9, [2-(3-Cyclopropyl-[1,2,4]oxadiazol-5-yl)-(R)-1-methyl-ethyl]-[3-(4-methoxy-2-methyl-phenyl)-2,5-dimethyl-pyrazolo[1,5-a]pyrimidin-7-yl]-amine]	< 100	–
COc1ccc(-c2c(C)nn3c(N(Cc4ccccc4)Cc4nc(C)no4)cc(C)nc23)c(C)c1 [Example 12-2, Benzyl-[3-(4-methoxy-2-methyl-phenyl)-2,5-dimethyl-pyrazolo[1,5-a]pyrimidin-7-yl]-(3-methyl-[1,2,4]oxadiazol-5-ylmethyl)-amine]	< 100	–
CCC(Nc1cc(C)nc2c(-c3ccc(OC)cc3C)c(C)nn12)c1nc(C2CC2)no1 (stereo not shown) [Example 11-1, [1-(3-Cyclopropyl-[1,2,4]oxadiazol-5-yl)-propyl]-[3-(4-methoxy-2-methyl-phenyl)-2,5-dimethyl-pyrazolo[1,5-a]pyrimidin-7-yl]-amine]	< 100	–
COc1ccc(-c2c(C)nn3c(NC(Cc4ccccc4)c4nc(C)no4)cc(C)nc23)c(C)c1 (stereo not shown) [Example 11-3, [3-(4-Methoxy-2-methyl-phenyl)-2,5-dimethyl-pyrazolo[1,5-a]pyrimidin-7-yl]-[1-(3-methyl-[1,2,4]oxadiazol-5-yl)-2-phenyl-ethyl]-amine]	< 100	–
COc1ccc(-c2c(C)nn3c(NC(C)Cc4nc(C)no4)cc(C)nc23)c(C)c1 (stereo not shown) [Example 12-1, [3-(4-Methoxy-2-methyl-phenyl)-2,5-dimethyl-pyrazolo[1,5-a]pyrimidin-7-yl]-[1-methyl-2-(3-methyl-[1,2,4]oxadiazol-5-yl)-ethyl]-amine]	–	< 100
COc1ccc(-c2c(C)nn3c(NC(C)Cc4nc(C5CC5)no4)cc(C)nc23)c(C)c1 (stereo not shown) [Example 12-4, [2-(3-Cyclopropyl-[1,2,4]oxadiazol-5-yl)-1-methyl-ethyl]-[3-(4-methoxy-2-methyl-phenyl)-2,5-dimethyl-pyrazolo[1,5-a]pyrimidin-7-yl]-amine]	< 100	–
CCC(Nc1cc(C)nc2c(-c3ccc(OC)cc3C)c(C)nn12)c1nc(C(F)(F)F)no1 (stereo not shown) [Example 11-11, [3-(4-Methoxy-2-methyl-phenyl)-2,5-dimethyl-pyrazolo[1,5-a]pyrimidin-7-yl]-[1-(3-trifluoromethyl-[1,2,4]oxadiazol-5-yl)-propyl]-amine]	< 100	–

The remaining lines, values ahead:

Ki [1] [nM]	Ki [nM]	Structure (SMILES)
< 100	–	COc1ccc(-c2c(C)nn3c(N4CCC[C@H]4Cc4nc(C)no4)cc(C)nc23)c(C)c1 [Example 14-3, 3-(4-Methoxy-2-methyl-phenyl)-2,5-dimethyl-7-[(S)-2-(3-methyl-[1,2,4]oxadiazol-5-ylmethyl)-pyrrolidin-1-yl]-pyrazolo[1,5-a]pyrimidine]
< 100	–	CC[C@H](Cc1noc(C)n1)Nc1cc(C)nc2c(-c3ccc(OC)cc3C)c(C)nn12 [Example 17-3, [3-(4-Methoxy-2-methyl-phenyl)-2,5-dimethyl-pyrazolo[1,5-a]pyrimidin-7-yl]-[(R)-1-(5-methyl-[1,2,4]oxadiazol-3-ylmethyl)-propyl]-amine]
< 100	–	CC[C@@H](Cc1noc(C)n1)Nc1cc(C)nc2c(-c3ccc(OC)cc3C)c(C)nn12 [Example 17-2, [3-(4-Methoxy-2-methyl-phenyl)-2,5-dimethyl-pyrazolo[1,5-a]pyrimidin-7-yl]-[(S)-1-(5-methyl-[1,2,4]oxadiazol-3-ylmethyl)-propyl]-amine]
< 100	–	COc1ccc(-c2c(C)nn3c(N[C@@H](Cc4nc(C)no4)C(F)(F)F)cc(C)nc23)c(OC)c1 [Example 13-8, [3-(2,4-Dimethoxy-phenyl)-2,5-dimethyl-pyrazolo[1,5-a]pyrimidin-7-yl]-[2,2,2-trifluoro-(S)-1-(3-methyl-[1,2,4]oxadiazol-5-ylmethyl)-ethyl]-amine]
–	< 100	CCN(Cc1nc(C)no1)c1cc(C)nc2c(-c3ccc(OC)cc3C)c(C)nn12 [Example 20-1, Ethyl-[3-(4-methoxy-2-methyl-phenyl)-2,5-dimethyl-pyrazolo[1,5-a]pyrimidin-7-yl]-(3-methyl-[1,2,4]oxadiazol-5-ylmethyl)-amine]
< 100	–	COc1ccc(-c2c(C)nn3c(N[C@H](C)Cc4noc(C5CC5)n4)cc(C)nc23)c(C)c1 [Example 18-1, [(R)-2-(5-Cyclopropyl-[1,2,4]oxadiazol-3-yl)-1-methyl-ethyl]-[3-(4-methoxy-2-methyl-phenyl)-2,5-dimethyl-pyrazolo[1,5-a]pyrimidin-7-yl]-amine]
< 100	–	COc1ccc(-c2c(C)nn3c(N[C@@H](Cc4noc(C)n4)C(F)(F)F)cc(C)nc23)c(C)c1 [Example 19-1, [3-(4-Methoxy-2-methyl-phenyl)-2,5-dimethyl-pyrazolo[1,5-a]pyrimidin-7-yl]-[(S)-2,2,2-trifluoro-1-(5-methyl-[1,2,4]oxadiazol-3-ylmethyl)-ethyl]-amine]
< 100	–	CCC(Nc1cc(C)nc2c(-c3ccc(OC)cc3Cl)c(C)nn12)c1nc(C)no1 (stereo not shown) [Example 24-1, [3-(2-Chloro-4-methoxy-phenyl)-2,5-dimethyl-pyrazolo[1,5-a]pyrimidin-7-yl]-[1-(3-methyl-[1,2,4]oxadiazol-5-yl)-propyl]-amine]
< 100	–	CCC(Nc1cc(C)nc2c(-c3ccc(C)cc3Cl)c(C)nn12)c1nc(C)no1 (stereo not shown) [Example 24-6, [3-(2-Chloro-4-methyl-phenyl)-2,5-dimethyl-pyrazolo[1,5-a]pyrimidin-7-yl]-[1-(3-methyl-[1,2,4]oxadiazol-5-yl)-propyl]-amine]
< 100	–	COc1ccc(-c2c(C)nn3c(N4CCCCC4Cc4nc(C)no4)cc(C)nc23)c(C)c1 (stereo not shown) [Example 20-2, 3-(4-Methoxy-2-methyl-phenyl)-2,5-dimethyl-7-[2-(3-methyl-[1,2,4]oxadiazol-5-ylmethyl)-piperidin-1-yl]-pyrazolo[1,5-a]pyrimidine]
–	< 100	CCC(Nc1cc(C)nc2c(-c3ccc(OC)cc3C)c(C)nn12)c1nnc(C)o1 (stereo not shown) [Example 22-1, [3-(4-Methoxy-2-methyl-phenyl)-2,5-dimethyl-pyrazolo[1,5-a]pyrimidin-7-yl]-[1-(5-methyl-[1,3,4]oxadiazol-2-yl)-propyl]-amine]
< 100	–	CCC(Nc1cc(C)nc2c(-c3ccc(OC)cc3C)c(C)nn12)c1nnco1 (stereo not shown) [Example 21-1, [3-(4-Methoxy-2-methyl-phenyl)-2,5-dimethyl-pyrazolo[1,5-a]pyrimidin-7-yl]-(1-[1,3,4]oxadiazol-2-yl-propyl)-amine]
